The values below come from patent publication US20250332212A1, “METHOD FOR TREATING OR PREVENTING ALOPECIA” (Suzhou Mingren Pharmaceutical Biotechnology Co., Ltd., priority 2024, published 2025).

Series [1] is described as follows: JP1 stability experiment in skin-coating solvent (HPLC). The format is physicochemical. Particulars: 14 days. The protocol:
This example further explored the stability of JP1 in the skin-coating solvent. In this example, the solvent group and JP1 group were designed, and the content and molecular weight of JP1 in the skin-coating solvent were detected using high performance liquid chromatography on days 1, 3, 7, and 14, respectively, after the solution was formulated for evaluation. The prepared solutions were placed in a refrigerator at 4° C. The details of the experiments are shown in “II. JP1 Stability Experiments” of “Experimental Methods” below.
The stability of JP1 dissolved in a skin-coating solvent was tested at different time points. JP1 was prepared with the skin-coating solvent, and a solvent control group and a 10 mM JP1 group were set up. The prepared solution was stored in a refrigerator at 4° C. The five time points of 0, 1, 3, 7 and 14 days were detected by high performance liquid chromatography (HPLC), and the standard curve was plotted with the peak area as the vertical coordinate and the concentration of JP1 as the horizontal coordinate.

In series [2] the test system is AR. The experiment in a line: qPCR of AR mRNA in skin tissue of model mice. The class given is in vivo, mouse. Particulars: model II, P>0.05. The protocol:
(§1) 6.1) Sample preparation: 15-20 mg of mouse skin tissue was placed in a 1.5 mL centrifuge tube, and 600 μL of pre-cooled lysate was quickly added, and homogenized with an electric homogenizer. The homogenate obtained was blown gently 10 times, left at room temperature for 3-5 min, then centrifuged at 14,000×g for 5 min, and the supernatant was transferred to a new centrifuge tube with a pipette gun of suitable volume.
6.10) Reverse transcribe the RNA into cDNA according to the instructions of the reverse transcription kit, and then carry out subsequent experiments or store at −20° C. for later use.
(§2) 7.1) Dilute the specific gene amplification primers to 10 µM in ddH2O, prepare the qPCR reaction system according to the instructions in the kit and add them sequentially into a 384-well plate.
(§3) 7.3) Relative mRNA expression levels of genes were calculated by the […] relative quantification method using GAPDH as an internal reference.

Series [3] deals with Lef1. The experiment in a line: qPCR of Lef1 mRNA in skin tissue. The class given is in vivo, mouse. The protocol:
as §1, §2, §3

Series [4] concerns SP1. Put plainly: SP1 expression in skin tissue (qPCR, immunoblotting, immunofluorescence). The class given is in vivo, mouse. The protocol: (§4) 4.1) Protein extraction: 70 mg of skin tissue was placed in a 1.5 mL centrifuge tube, and 500 μL of tissue lysate RIPA containing protease inhibitor and phosphatase inhibitor was added. The tissue was placed on an ice box, pulverized by a tissue grinder, and then ultrasonically crushed to obtain a tissue suspension, which was then placed in a rotary windmill at 4° C. to be lysed for 2 h. The centrifuge was set at 12,000×g, 4° C., centrifuged for 15 min, and the supernatant was collected as the total protein.
(§5) 5.1) Heating of protein samples: the total protein content of each tissue was 50 μg; calculate the volume of a corresponding protein sample, make up the volume with saline to 16 μL, then add 4 μL of 5×SDS sampling buffer, heat at 100° C. for 5 min, and then cool at room temperature and store at −20° C.
as §2, §3
9.5) Primary antibody incubation: the tissue was circled by the histochemical pen, about 50 μL of primary antibody was added dropwise to the tissue, and incubated in a wet box overnight at 4° C., washed 3 times with PBS.

Series [5] concerns MYC. The experiment in a line: qPCR of MYC mRNA in skin tissue. The class given is in vivo, mouse. The settings on record: P>0.05. The protocol:
as §2, §3

In series [6] the test system is E2F1. The experiment in a line: qPCR of E2F1 mRNA in skin tissue. The format is in vivo, mouse. Particulars: after JP1 intervention, P<0.01. The protocol:
as §2, §3

Series [7] has as its system AR, FOXD3, and FOXI1. The experiment in a line: qPCR of other predicted SP1 transcription factors in skin tissue. The settings on record: P>0.05. The class given is in vivo, mouse. The protocol: Four transcription factors that can bind to the SP1 promoter region were obtained by taking the intersection of the predicted data: E2F1, AR, FOXD3, and FOXI1 (FIG. 13A).
as §2, §3

For series [8], the system named is p-ERK. The experiment in a line: Immunoblotting of p-ERK in skin tissue. The format is in vivo, mouse. The settings on record: P<0.05, dose-effect relationship. The protocol: as §4, §5
(§6) 5.7) Primary antibody incubation: the cut protein bands were placed into the corresponding primary antibody and incubated at 4° C. on a shaker overnight, washed with TBST 3 times for 10 min/time.

Series [9] concerns SP1, Wnt10a, Wnt10b and β-catenin. The experiment in a line: Immunoblotting of SP1 and downstream molecules in skin, Animal model III. The format is in vivo, mouse. The settings on record: 1% JP1. The protocol:
as §4, §5, §6

For series [10] the following is noted: mouse, in vivo.
Protocol: In this Example, to elucidate the mechanism of JP1 penetrating the skin and acting on the hair follicle, a 14-day AGA modeling was performed according to the model design strategy of Example 1 above. Thereafter, a 1% FITC-JP1 solution was applied to the dorsal depilated area of the mice in a light-avoidance environment. Five time points were set at 0.5, 1, 2, 4 and 8 h for observation. The fresh skin tissue was made into frozen sections, and the penetration pathway of JP1 in the skin tissue and the amount of aggregation in the hair follicles were observed under an inverted fluorescence microscope.
15 C57BL/6J male mice were dorsally depilated after two weeks of continuous TP injection. A 1% FITC-JP1 solution was applied locally to the depilated area of the mice on the 1st day after depilation, no light, in five groups of 0.5 h, 1 h, 2 h, 4 h and 8 h (n=3).
The back skin was removed at the corresponding time points and fixed in 4% paraformaldehyde. After 48 h of fixation, the skin tissue was successively dehydrated in 20% and 30% sucrose solution for 2 days each. After gradient dehydration, sections (20 μm) were made using a frozen microtome. Zeiss inverted fluorescence microscope was used to photograph the fluorescent sections.

Square brackets hold non-standard residues; d marks the D form. Ends that are not written are not given here. pS = N[C@@H](COP(=O)(O)O)C(=O)O

In the case of FPGSDRF-RGD (FPG[pS]DRFRGD) [JP1], in series [1] (10 mM JP1, 4° C.), the “JP1 degradation in skin-coating solvent” value is given as “no JP1 degradation was detected”. Also, in series [1] (skin-coating solvent, 4° C.), the “peak area of the substance produced by degradation” value is “less than 0.5 mAU” and the “percentage of the main peak area” value is on record as around 100%. Besides, the “AR mRNA level, difference between groups” value in series [2] is given as “no statistically significant difference”. Also, the “Lef1 mRNA expression vs model group” value in [3] is given as “increased”. Further, the SP1 immunofluorescence entry in series [4] is “consistent with the protein immunoblotting results”. Besides, the “SP1 protein expression level” value in series [4] (immunoblotting) was “elevated trend”. Moreover, in series [4] (qPCR), the “SP1 mRNA expression” value was “high expression”. Besides, the “SP1 mRNA expression level, 1% JP1 group vs 0.1% JP1 group” value in series [4] (qPCR, P<0.05) is “significantly higher than that in the 0.1% JP1 group”. The “MYC mRNA level, difference between groups” value in series [5] was “not statistically significant”. Moreover, the “E2F1 mRNA level expression” value in [6] is “elevated”. Also, the “mRNA expression of other molecules (predicted SP1 transcription factors)” value in series [7] was “did not change significantly”. For the same substance, the p-ERK expression level entry in series [8] is reported as “elevated”. In series [9], the “expression levels of key molecules (SP1, Wnt10a, Wnt10b, β-catenin), day 4” value is listed as “did not change significantly” and the “protein expression levels of four molecules (SP1, Wnt10a, Wnt10b, β-catenin), day 8” value is “increased significantly”. Also, the “penetration into skin and follicle tissue” value in series [10] was “able to penetrate into the skin and enter into the follicle tissue in a targeted manner”.
